Experimental data as given in US11166924B2, “N-methyl-d-aspartate receptor allosteric modulators and methods for their use” (Qingdao Primedicine Pharmaceutical Company, Ltd., priority 2016, dated 2021).

Assays:
Format in all cases: cell-based
AMPAR = assay: AMPA-induced currents in cultured hippocampal neurons
Description: Whole cell patch-clamp recordings were performed under voltage-clamp mode using an Axopatch 200B or 1D patch-clamp amplifier (Molecular Devices). Whole-cell currents were recorded at a holding potential of −60 mV unless indicated elsewhere, and signals were filtered at 2 kHz, digitized at 10 kHz (Digidata 1322A). Recording pipettes (3-5 MΩ) were filled with the intracellular solution that contained (mM): CsCl 140, HEPES 10, Mg-ATP 4, QX-314 5, pH 7.20; osmolarity, 290-295 mOsm. BAPTA (10 mM) was added in the intracellular solution (otherwise specified). The coverslips were continuously superfused with the extracellular solution containing (mM): NaCl 140, KCl 5.4, HEPES 10, CaCl2 1.3, glucose 20, pH 7.4; osmolarity, 305-315 mOsm. NMDA, GABA or AMPA induced currents were either applied by NMDA, GABA, AMPA either through perfusion fast-step (Warner Instruments). […]
Next, the inventor evaluated the selectivity profile for Npam02 on two other key ionotropic receptors of the central nervous system (CNS): α-amino-3-hydroxy-5-methyl-4-isoxazolepropionic acid receptor AMPAR, which are known to be a non-NMDA type ionotropic transmembrane receptor for glutamate that mediates fast synaptic transmission in the central nervous system (CNS) and GABA receptors which are the principal inhibitory ligand-gated ion channel receptor. […]

GluN1^L135Q/GluN2A = biological target: T1, GluN1^L135Q/GluN2A (Rattus norvegicus, UniProt P35439+Q00959, L135Q); assay: Patch clamp in HEK293 cells expressing mutant GluN1 L135Q/GluN2A
T1 construct: expressed in transfected cells; host or cells: HEK293
Description: (§1) Whole cell patch-clamp recordings were performed under voltage-clamp mode using an Axopatch 200B or 1D patch-clamp amplifier (Molecular Devices). Whole-cell currents were recorded at a holding potential of −60 mV unless indicated elsewhere, and signals were filtered at 2 kHz, digitized at 10 kHz (Digidata 1322A). Recording pipettes (3-5 MΩ) were filled with intracellular solution containing (mM): CsCl 140, HEPES 10, Mg-ATP 4, QX-314 5, pH 7.20; osmolarity, 290-295 mOsm. BAPTA (10 mM) was added in the intracellular solution (unless otherwise specified). The coverslips were continuously superfused with extracellular solution containing (mM): NaCl 140, KCl 5.4, HEPES 10, CaCl2 1.3, glucose 20, pH 7.4; osmolarity, 305-315 mOsm. NMDA-induced currents were applied by NMDA through perfusion fast-step (Warner Instruments). With perfusion fast-step system, NMDA application was achieved by using a two-square barrel glass tubing and depending on the age of the cultured neurons, CNQX (10 μM), TTX (0.5 μM) or BIC (10 μM) were added in the extracellular solution to minimize the activation of ionotropic glutamate receptors and voltage-gated sodium channels, respectively. All experiments were performed at room temperature. Recordings from at least six HEK293 cells/neurons were performed for all active compounds. […]

GluN1/GluN2A^A108G = biological target: T2, GluN1/GluN2A^A108G (Rattus norvegicus, UniProt P35439+Q00959, A108G); assay: Patch clamp in HEK293 cells expressing mutant GluN1/GluN2A A108G
T2 construct: expressed in transfected cells; host or cells: HEK293
Description: as §1

GluN1^L135Q/GluN2A^F115S = biological target: T3, GluN1^L135Q/GluN2A^F115S (Rattus norvegicus, UniProt P35439+Q00959, F115S/L135Q); assay: Patch clamp in HEK293 cells expressing double mutant GluN1 L135Q/GluN2A F115S
T3 construct: expressed in transfected cells; host or cells: HEK293
Description: as §1

T1 sequence (Q00959 23-1464, other chains not shown): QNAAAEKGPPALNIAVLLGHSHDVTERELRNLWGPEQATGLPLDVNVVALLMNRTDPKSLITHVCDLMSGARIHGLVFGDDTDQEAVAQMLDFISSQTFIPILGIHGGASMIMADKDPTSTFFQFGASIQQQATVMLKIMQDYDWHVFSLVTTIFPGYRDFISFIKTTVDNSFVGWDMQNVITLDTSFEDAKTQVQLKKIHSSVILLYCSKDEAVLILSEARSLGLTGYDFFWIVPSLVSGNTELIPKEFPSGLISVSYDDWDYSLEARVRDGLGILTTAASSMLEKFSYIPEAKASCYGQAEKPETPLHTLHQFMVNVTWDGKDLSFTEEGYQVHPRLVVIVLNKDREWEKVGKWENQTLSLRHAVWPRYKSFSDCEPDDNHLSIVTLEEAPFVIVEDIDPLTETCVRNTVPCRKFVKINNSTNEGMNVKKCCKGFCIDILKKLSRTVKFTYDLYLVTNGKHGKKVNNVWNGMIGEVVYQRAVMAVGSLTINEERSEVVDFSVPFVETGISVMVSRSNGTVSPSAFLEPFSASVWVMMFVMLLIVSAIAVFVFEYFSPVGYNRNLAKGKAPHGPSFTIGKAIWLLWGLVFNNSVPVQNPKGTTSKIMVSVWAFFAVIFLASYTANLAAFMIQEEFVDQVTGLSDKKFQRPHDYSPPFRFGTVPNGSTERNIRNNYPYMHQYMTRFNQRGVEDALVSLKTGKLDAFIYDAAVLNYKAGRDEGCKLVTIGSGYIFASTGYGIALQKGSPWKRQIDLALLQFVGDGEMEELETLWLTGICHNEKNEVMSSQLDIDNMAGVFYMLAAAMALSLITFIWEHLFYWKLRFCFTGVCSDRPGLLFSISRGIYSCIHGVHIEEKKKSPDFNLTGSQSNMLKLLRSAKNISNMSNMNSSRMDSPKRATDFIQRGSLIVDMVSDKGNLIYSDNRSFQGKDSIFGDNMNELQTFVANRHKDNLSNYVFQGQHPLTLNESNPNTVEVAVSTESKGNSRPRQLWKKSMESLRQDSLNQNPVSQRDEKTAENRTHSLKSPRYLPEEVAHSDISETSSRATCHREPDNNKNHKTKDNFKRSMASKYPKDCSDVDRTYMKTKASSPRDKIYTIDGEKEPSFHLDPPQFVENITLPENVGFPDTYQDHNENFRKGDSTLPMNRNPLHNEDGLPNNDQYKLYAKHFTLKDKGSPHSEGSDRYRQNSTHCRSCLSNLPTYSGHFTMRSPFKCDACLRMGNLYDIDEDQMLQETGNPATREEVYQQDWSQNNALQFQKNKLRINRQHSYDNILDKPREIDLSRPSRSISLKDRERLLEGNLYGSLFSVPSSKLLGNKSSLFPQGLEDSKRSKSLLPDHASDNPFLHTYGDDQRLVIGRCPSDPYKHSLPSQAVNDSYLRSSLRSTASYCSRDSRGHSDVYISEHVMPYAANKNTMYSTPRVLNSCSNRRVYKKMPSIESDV
T3 sequence (Q00959 23-1464 F115S, other chains not shown): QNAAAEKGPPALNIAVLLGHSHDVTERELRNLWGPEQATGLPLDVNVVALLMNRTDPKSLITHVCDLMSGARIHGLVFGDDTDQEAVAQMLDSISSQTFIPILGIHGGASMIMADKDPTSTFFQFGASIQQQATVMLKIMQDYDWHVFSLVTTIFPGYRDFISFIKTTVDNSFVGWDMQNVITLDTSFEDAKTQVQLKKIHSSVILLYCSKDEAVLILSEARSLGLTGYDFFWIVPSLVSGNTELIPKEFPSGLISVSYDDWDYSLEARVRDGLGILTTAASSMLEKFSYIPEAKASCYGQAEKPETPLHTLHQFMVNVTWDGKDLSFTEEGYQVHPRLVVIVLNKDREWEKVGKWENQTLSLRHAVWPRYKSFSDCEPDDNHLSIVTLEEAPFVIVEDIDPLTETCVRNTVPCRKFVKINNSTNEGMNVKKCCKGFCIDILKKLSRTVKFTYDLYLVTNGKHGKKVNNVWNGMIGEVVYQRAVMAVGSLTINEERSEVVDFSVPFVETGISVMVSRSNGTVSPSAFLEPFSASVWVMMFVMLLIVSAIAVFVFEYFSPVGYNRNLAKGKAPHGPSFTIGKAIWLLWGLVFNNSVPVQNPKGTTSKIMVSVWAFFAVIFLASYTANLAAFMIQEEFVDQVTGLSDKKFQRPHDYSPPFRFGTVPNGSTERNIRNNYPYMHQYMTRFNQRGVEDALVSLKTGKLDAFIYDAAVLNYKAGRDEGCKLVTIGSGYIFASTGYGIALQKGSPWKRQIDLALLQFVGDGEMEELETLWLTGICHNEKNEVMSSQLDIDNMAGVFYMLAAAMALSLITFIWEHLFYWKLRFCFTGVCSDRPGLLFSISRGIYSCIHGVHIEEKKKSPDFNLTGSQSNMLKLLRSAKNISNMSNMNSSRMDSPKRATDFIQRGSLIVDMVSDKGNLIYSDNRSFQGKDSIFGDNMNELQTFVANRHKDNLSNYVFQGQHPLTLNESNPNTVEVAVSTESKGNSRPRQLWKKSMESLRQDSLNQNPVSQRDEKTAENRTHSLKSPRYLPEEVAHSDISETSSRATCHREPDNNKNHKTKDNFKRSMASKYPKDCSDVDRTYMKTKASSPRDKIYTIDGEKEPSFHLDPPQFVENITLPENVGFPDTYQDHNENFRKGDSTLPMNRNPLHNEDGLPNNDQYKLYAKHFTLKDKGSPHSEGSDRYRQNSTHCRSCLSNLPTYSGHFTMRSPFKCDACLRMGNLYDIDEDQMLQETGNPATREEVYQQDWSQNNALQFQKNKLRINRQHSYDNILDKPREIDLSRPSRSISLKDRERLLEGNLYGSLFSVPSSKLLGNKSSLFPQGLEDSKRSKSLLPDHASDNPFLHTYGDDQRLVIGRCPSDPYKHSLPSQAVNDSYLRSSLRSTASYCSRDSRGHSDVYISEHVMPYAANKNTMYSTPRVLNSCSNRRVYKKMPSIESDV
T2 sequence (Q00959 23-1464 A108G, other chains not shown): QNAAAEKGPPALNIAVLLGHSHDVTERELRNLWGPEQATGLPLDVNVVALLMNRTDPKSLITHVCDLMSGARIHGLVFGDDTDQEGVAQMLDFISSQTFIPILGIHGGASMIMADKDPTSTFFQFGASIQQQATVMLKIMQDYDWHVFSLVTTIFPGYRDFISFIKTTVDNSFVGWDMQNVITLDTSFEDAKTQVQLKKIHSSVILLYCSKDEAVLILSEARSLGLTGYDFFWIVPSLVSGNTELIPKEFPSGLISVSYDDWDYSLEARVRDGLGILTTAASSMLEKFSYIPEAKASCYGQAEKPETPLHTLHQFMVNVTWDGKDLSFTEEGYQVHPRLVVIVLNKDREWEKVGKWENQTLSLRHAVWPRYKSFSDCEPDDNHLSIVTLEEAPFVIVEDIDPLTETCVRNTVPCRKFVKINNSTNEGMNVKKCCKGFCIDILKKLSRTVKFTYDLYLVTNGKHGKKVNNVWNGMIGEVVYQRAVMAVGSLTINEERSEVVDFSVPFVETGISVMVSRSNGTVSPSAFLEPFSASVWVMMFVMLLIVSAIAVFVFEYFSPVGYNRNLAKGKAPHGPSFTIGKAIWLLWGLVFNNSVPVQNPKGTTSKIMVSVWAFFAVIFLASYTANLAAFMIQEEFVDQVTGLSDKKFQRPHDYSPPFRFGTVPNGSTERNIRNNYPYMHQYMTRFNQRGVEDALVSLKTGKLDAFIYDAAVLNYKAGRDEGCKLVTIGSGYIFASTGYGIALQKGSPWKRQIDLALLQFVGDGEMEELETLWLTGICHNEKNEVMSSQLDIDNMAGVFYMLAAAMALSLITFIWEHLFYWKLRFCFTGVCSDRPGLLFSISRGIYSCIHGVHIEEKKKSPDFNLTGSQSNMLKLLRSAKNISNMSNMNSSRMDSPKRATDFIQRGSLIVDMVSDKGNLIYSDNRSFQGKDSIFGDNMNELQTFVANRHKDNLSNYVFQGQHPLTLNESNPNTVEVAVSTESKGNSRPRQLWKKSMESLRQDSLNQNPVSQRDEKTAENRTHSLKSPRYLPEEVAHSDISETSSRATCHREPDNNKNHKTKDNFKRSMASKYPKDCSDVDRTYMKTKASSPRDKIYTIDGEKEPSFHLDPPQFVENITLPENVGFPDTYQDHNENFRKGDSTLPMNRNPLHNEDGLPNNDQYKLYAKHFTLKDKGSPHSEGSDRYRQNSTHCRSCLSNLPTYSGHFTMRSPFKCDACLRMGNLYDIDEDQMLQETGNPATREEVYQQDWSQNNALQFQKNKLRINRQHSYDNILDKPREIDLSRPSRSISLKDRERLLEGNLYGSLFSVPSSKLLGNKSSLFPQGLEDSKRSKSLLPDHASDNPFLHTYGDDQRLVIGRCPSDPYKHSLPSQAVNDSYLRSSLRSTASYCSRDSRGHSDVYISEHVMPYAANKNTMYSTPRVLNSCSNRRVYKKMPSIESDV

SMILES	Effect on AMPAR mediated currents (AMPAR)	Relative potentiation (GluN1^L135Q/GluN2A; Table 3) [%]	Net Difference potentiation (GluN1^L135Q/GluN2A; normalized to wild-type) [%]	Relative potentiation (GluN1/GluN2A^A108G; Table 3) [%]	Net Difference potentiation (GluN1/GluN2A^A108G; normalized to wild-type)	Net Difference potentiation (GluN1^L135Q/GluN2A^F115S; GluN1 L135Q/GluN2A F115S double mutation, normalized to wild-type) [%]	Relative potentiation (GluN1^L135Q/GluN2A^F115S; Table 3, GluN1 L135Q/GluN2A F115S) [%]
COc1cccc(/C=N/NC(=O)c2ccccc2C)c1O [Npam02, (E)-N′-(2-hydroxy-3-methoxybenzylidene)-2-methylbenzohydrazide]	no observable effects						
CCOc1cc(Cl)c(Cl)c(/C=N/NC(=O)c2ccccc2Br)c1O [Npam43, (E)-2-bromo-N′-(2,3-dichloro-5-ethoxy-6-hydroxybenzylidene)benzohydrazide]		47.1 ± 2.8	−77.5±2.12	210 ± 9.0	+0.48 ± 0.01%	−93.9±10.3	12.7 ± 1.8
